Experimental data as given in patent publication US9738697B2 (Wisconsin Alumni Research Foundation, priority 2013, dated 2017).
Values belong to the molecule of their own block, whether it stands above or below them.

Tests used:
mouse pancreatic islets = assay: Islet cell insulin secretion assay (glucose-stimulated insulin secretion, insulin content); format: cell-based
Description: A critical physiological role of GLP-1 is to augment glucose-stimulated insulin secretion (GSIS) from pancreatic islet β cells. α/β-Peptide SEQ. ID. […] The results are depicted in FIG. 2.
ID. NO: 7. Approximately 100 medium sized islets were washed three times, placed in a sterile Petri dish, and incubated overnight in culture medium (RPMI 1640, with 11.1 mM glucose, antibiotics and 10% heat-inactivated fetal bovine serum). The following day, 50 islets were washed and transferred in […] of Krebs Ringer Buffer (KRB) to a Swinnex®-brand filter holder (EMD Millipore, Billerica, Mass.). The islets were sandwiched between two layers of Bio-Gel P-2 bead (Bio-Rad, Hercules, Calif.) solution (200 mg beads/mL in KRB; bottom layer, […] and top layer, […]). The Swinnex filter holder was attached in-line with a Minipuls®-brand pump (Gilson, Middleton, Wis.) and a FC 204 Fraction Collector (Gilson). Islets were perifused at the rate of 1 mL/min, and samples were collected at 30 sec intervals. Insulin content of the islets themselves and insulin secretion were determined by ELISA. […] ID. NO: 7.

C57BL/6J mice = assay: Glucose tolerance test (GTT) in mice; format: in vivo, mouse
Description: ID. NO: 7 was administered to mice by interperitoneal (i.p.) injection at a 1 mg/kg dose, or lower for SEQ. ID. NO: 7, using an injection volume of 10 mL/kg body mass. Each peptide was first dissolved in prefiltered DMSO at 10 mg/mL concentration, then diluted >20-fold with TBS buffer, pH 7.4 (final DMSO conc.=<5%). Glucose was administered by i.p. injection with a sterile-filtered 30% D-glucose-saline solution at a 1.5 g/kg dose using a 5 mL/kg injection volume.
Thirteen-week-old male C57BL/6J mice (The Jackson Laboratory) (n=4) were fasted overnight on wood chip bedding for 15 hours prior to the experiment. Blood glucose levels were monitored from a tail tip bleed using an ACCU-CHEK®-brand blood glucose meter (Roche Diagnostics, Indianapolis, Ind.). Fasting glucose levels were measured at 75 minutes prior to the glucose injection (t=−75 min), and the compound injection was performed 60 minutes prior to the glucose injection (t=−60 min). Glucose levels were measured immediately prior to the glucose injection (t=0 min) to assess any changes in the baseline glucose caused by peptide administration. Blood glucose levels were monitored at 30, 60, 90, and 120 minutes after injection of glucose.
Five hours after peptide injection, the mice received a second injection of 1.5 g/kg glucose. Blood glucose was monitored at 30 min after this second glucose injection. Mice were sacrificed by CO2 inhalation at the conclusion of the GTT.

human GLP-1 receptor = human GLP-1 receptor (Homo sapiens, UniProt P43220); assay: GLP-1R activation monitored by cAMP production in HEK293 cells
Sequence of human GLP-1 receptor (P43220 24-463): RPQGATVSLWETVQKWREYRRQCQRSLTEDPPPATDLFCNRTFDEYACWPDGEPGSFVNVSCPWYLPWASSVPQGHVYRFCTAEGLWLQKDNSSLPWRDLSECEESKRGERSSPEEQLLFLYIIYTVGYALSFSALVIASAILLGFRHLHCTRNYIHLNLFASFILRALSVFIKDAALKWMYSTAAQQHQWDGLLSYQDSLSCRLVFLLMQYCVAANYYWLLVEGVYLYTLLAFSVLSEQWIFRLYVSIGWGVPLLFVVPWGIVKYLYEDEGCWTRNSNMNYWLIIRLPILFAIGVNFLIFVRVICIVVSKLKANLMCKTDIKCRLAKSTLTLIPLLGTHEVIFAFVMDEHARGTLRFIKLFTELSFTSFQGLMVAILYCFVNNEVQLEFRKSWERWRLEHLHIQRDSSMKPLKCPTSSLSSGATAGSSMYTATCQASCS

chymotrypsin = target: T1, chymotrypsin (Bos taurus, UniProt P00766); assay: Protease assay with chymotrypsin (HPLC); format: in vitro ADME; conditions: chymotrypsin in TBS; 40 μM peptide, 50 μg/mL chymotrypsin, TBS pH 8.0, room temperature; read-out: t1/2 with chymotrypsin (converted)
T1 construct: purchased Promega V1062
Description: An HPLC method from the literature was used to assess protease action on selected compounds.^29,31 Two nmol of solid peptide was dissolved in 40 μL of TBS pH 8.0 (resulting concentration of peptide=40 μM) before protease was added. Chymotrypsin was purchased from Promega (Fitchburg, Wis.; catalog #V1062), and neprilysin was purchased from Reprokine. Ltd. (Valley Cottage, N.Y.; catalog #RKP08473); stock solutions of 250 μg/mL chymotrypsin and 200 μg/mL neprilysin in water were prepared. A 10 μL aliquot of protease stock solution was added to 40 μL of 40 μM peptide solution to begin the reaction. Periodically, a 10 μL aliquot of the solution was removed, and protease action was halted by adding this aliquot to 100 μL of 1% aqueous TFA solution. A portion (100 μL) of the quenched solution was injected onto an HPLC column using the conditions described under “Peptide Synthesis”, and peaks were analyzed using MALDI-TOF MS. The time course of peptide degradation was experimentally determined by integrating the area of each peak in a series of HPLC traces. The area percent of parent peptide (relative to the initial trace) was calculated for each trace and plotted in GraphPad Prism as an exponential decay to determine half-life values.
ID. […] Major backbone cut sites are indicated with double front slashes. […] Digestion occurs at three major cleavage sites. […] ID. NO: 7 with 50 μg/mL chymotrypsin in TBS pH 8.0 at room temperature. […] ID. NO: 9 with 50 μg/mL chymotrypsin in TBS pH 8.0 at room temperature. This peptide has seven substitutions, α→Aib.

neprilysin = target: T2, neprilysin (Homo sapiens, UniProt P08473); assay: Protease assay with neprilysin (HPLC); format: in vitro ADME; conditions: 40 μg/mL neprilysin
T2 construct: purchased Reprokine; Ltd. RKP08473
T2 sequence (P08473 whole entry): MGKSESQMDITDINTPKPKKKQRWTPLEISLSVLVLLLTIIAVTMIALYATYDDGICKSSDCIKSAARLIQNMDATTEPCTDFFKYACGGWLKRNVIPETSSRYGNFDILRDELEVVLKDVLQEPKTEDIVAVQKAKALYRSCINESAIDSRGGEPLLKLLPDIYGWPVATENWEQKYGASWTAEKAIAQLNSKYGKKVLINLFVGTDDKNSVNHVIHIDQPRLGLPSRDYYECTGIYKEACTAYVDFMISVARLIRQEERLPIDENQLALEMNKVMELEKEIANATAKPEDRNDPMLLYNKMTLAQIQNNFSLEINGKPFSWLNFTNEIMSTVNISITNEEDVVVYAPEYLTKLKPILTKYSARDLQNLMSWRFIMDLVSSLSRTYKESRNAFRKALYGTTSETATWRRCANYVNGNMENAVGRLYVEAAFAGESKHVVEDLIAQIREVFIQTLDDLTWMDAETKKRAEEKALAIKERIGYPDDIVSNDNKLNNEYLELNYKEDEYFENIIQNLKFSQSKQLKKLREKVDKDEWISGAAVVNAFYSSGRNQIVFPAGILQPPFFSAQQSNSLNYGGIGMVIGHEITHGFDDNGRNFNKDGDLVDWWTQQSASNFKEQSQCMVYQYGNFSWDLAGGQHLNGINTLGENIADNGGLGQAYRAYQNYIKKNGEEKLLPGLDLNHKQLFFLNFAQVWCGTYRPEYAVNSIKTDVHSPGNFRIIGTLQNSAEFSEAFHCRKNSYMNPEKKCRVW

Molecule: CC[C@H](C)[C@H](NC(=O)[C@H](Cc1ccccc1)NC(=O)[C@H](CCC(=O)O)NC(=O)[C@H](CCCCN)NC(=O)[C@H](C)NC(=O)[C@H](C)NC(=O)[C@H](CCC(N)=O)NC(=O)CNC(=O)[C@H](CCC(=O)O)NC(=O)[C@H](CC(C)C)NC(=O)[C@H](Cc1ccc(O)cc1)NC(=O)[C@H](CO)NC(=O)[C@H](CO)NC(=O)[C@@H](NC(=O)[C@H](CC(=O)O)NC(=O)[C@H](CO)NC(=O)[C@@H](NC(=O)[C@H](Cc1ccccc1)NC(=O)[C@@H](NC(=O)CNC(=O)[C@H](CCC(=O)O)NC(=O)[C@H](C)NC(=O)[C@@H](N)Cc1c[nH]cn1)[C@@H](C)O)[C@@H](C)O)C(C)C)C(=O)N[C@@H](C)C(=O)N[C@@H](Cc1c[nH]c2ccccc12)C(=O)N[C@@H](CC(C)C)C(=O)N[C@H](C(=O)N[C@@H](CCCCN)C(=O)NCC(=O)N[C@@H](CCCNC(=N)N)C(N)=O)C(C)C [GLP-1(7-36)-NH2]
- increase in glucose-stimulated insulin secretion (GSIS) (mouse pancreatic islets; freshly isolated mouse islets, 90 nM agonist): ~2 fold

Molecule: Exendin-4: GLP-1R agonist found in the saliva of the Gila monster (39 residues), active agent in exenatide; purchased from Anaspec
- rise of glucose relative to vehicle-treated mice during the GTT (in words) (C57BL/6J mice; 1 mg/kg): dramatic suppression
- Average Blood Glucose Level (C57BL/6J mice; 1 mg/kg i.p., time 0.0 min): 89.5 mg/dL
- Average Blood Glucose Level (C57BL/6J mice; 1 mg/kg i.p., time 30.0 min): 123.5 mg/dL
- Average Blood Glucose Level (C57BL/6J mice; 1 mg/kg i.p., time 60.0 min): 87.0 mg/dL
- Average Blood Glucose Level (C57BL/6J mice; 1 mg/kg i.p., time 90.0 min): 67.5 mg/dL
- Average Blood Glucose Level (C57BL/6J mice; 1 mg/kg i.p., time 120.0 min): 70.0 mg/dL
- Average Blood Glucose Level (C57BL/6J mice; 1 mg/kg i.p., time −60.0 min (peptide injection)): 118.0 mg/dL
- Average Blood Glucose Level at 30 min (column head AUC) (C57BL/6J mice; 1 mg/kg i.p., Table 7, 30 min after second glucose injection given five hours after peptide): 118.8
- glucose-lowering effect in GTT repeated 5 hours after agonist administration (in words) (C57BL/6J mice; 1 mg/kg, 30 min after the second glucose challenge): maintained

Molecule: GLP-1: glucagon-like peptide-1; used loosely for GLP-1(7-36)-NH2 (Tables 3, 5) or GLP-1(7-37)-NH2
- Insulin Content average (ng/3 islets) (mouse pancreatic islets; high glucose + 3 nM peptide): 522.1 ng/3 islets
- Insulin Content average (ng/3 islets) (mouse pancreatic islets; high glucose + 10 nM peptide): 496.4 ng/3 islets
- Insulin Content average (ng/3 islets) (mouse pancreatic islets; high glucose + 30 nM peptide): 458.6 ng/3 islets
- Insulin Content average (ng/3 islets) (mouse pancreatic islets; high glucose + 90 nM peptide): 463.1 ng/3 islets

- agonist character at GLP-1R (in words) (human GLP-1 receptor; cAMP production): native-like efficacy and potency
Molecule: CC[C@H](C)[C@H](NC(=O)[C@H](Cc1ccccc1)NC(=O)[C@H](CCC(=O)O)NC(=O)[C@H](CCCCN)NC(=O)[C@H](C)NC(=O)[C@H](C)NC(=O)[C@H](CCC(N)=O)NC(=O)CNC(=O)[C@H](CCC(=O)O)NC(=O)[C@H](CC(C)C)NC(=O)[C@H](Cc1ccc(O)cc1)NC(=O)[C@H](CO)NC(=O)[C@H](CO)NC(=O)C(C)(C)NC(=O)[C@H](CC(=O)O)NC(=O)[C@H](CO)NC(=O)[C@@H](NC(=O)[C@H](Cc1ccccc1)NC(=O)[C@@H](NC(=O)CNC(=O)[C@H](CCC(=O)O)NC(=O)[C@H](C)NC(=O)[C@@H](N)Cc1c[nH]cn1)[C@@H](C)O)[C@@H](C)O)C(=O)N[C@@H](C)C(=O)N[C@@H](Cc1c[nH]c2ccccc12)C(=O)N[C@@H](CC(C)C)C(=O)N[C@H](C(=O)N[C@@H](CCCCN)C(=O)NCC(=O)N[C@@H](CCCNC(=N)N)C(=O)NCC(N)=O)C(C)C [SEQ. ID. NO: 14]

- EC50 (human GLP-1 receptor): > 100 nM
- cAMP production at 100 nM (in words) (human GLP-1 receptor; 100 nM peptide): only a small amount of cAMP production
- cAMP production, AVERAGES at M Concentrations −7 (human GLP-1 receptor; peptide concentration −7 (log M)): 100
- cAMP production, AVERAGES at M Concentrations −8 (human GLP-1 receptor; peptide concentration −8 (log M)): 99.2328
- cAMP production, AVERAGES at M Concentrations −9 (human GLP-1 receptor; peptide concentration −9 (log M)): 42.7672
- cAMP production, AVERAGES at M Concentrations −10 (human GLP-1 receptor; peptide concentration −10 (log M)): 18.05
- cAMP production, AVERAGES at M Concentrations −12 (human GLP-1 receptor; peptide concentration −12 (log M)): 5.688
- cAMP production, AVERAGES at M Concentrations −13 (human GLP-1 receptor; peptide concentration −13 (log M)): 5.688
Molecule: CC[C@H](C)[C@H](NC(=O)[C@H](Cc1ccccc1)NC(=O)[C@H](CCC(=O)O)NC(=O)C1CCCC1NC(=O)[C@H](C)NC(=O)[C@H](C)NC(=O)[C@H](CCC(N)=O)NC(=O)C1CCCC1NC(=O)[C@H](CCC(=O)O)NC(=O)[C@H](CC(C)C)NC(=O)[C@H](Cc1ccc(O)cc1)NC(=O)C1CCCC1NC(=O)[C@H](CO)NC(=O)[C@@H](NC(=O)[C@H](CC(=O)O)NC(=O)C1CCCC1NC(=O)[C@@H](NC(=O)[C@H](Cc1ccccc1)NC(=O)[C@@H](NC(=O)CNC(=O)[C@H](CCC(=O)O)NC(=O)[C@H](C)NC(=O)[C@@H](N)Cc1c[nH]cn1)[C@@H](C)O)[C@@H](C)O)C(C)C)C(=O)NC1CCCC1C(=O)N[C@@H](Cc1c[nH]c2ccccc12)C(=O)N[C@@H](CC(C)C)C(=O)N[C@H](C(=O)NC1CNCC1C(=O)NCC(=O)N[C@@H](CCCNC(=N)N)C(=O)NCC(N)=O)C(C)C (some centres unmarked) [SEQ. ID. NO: 6, H-HAEGTFTXDVSXYLEXQAAXEFIXWLVZGRG-NH2]

- half-life (chymotrypsin): 2.25 min
- number of major cleavage sites, neprilysin (neprilysin; MALDI-TOF-MS): six
- half-life (neprilysin; neprilysin in TBS, pH 8, 40 μM peptide, TBS pH 8.0, room temperature, read-out: half-life (t1/2) with neprilysin (converted)): 8.3 h
Molecule: CC[C@H](C)[C@H](NC(=O)[C@H](Cc1ccccc1)NC(=O)[C@H](CCC(=O)O)NC(=O)C(C)(C)NC(=O)[C@H](C)NC(=O)[C@H](C)NC(=O)[C@H](CCC(N)=O)NC(=O)C(C)(C)NC(=O)[C@H](CCC(=O)O)NC(=O)[C@H](CC(C)C)NC(=O)[C@H](Cc1ccc(O)cc1)NC(=O)C(C)(C)NC(=O)[C@H](CO)NC(=O)C(C)(C)NC(=O)[C@H](CC(=O)O)NC(=O)[C@H](CO)NC(=O)[C@@H](NC(=O)[C@H](Cc1ccccc1)NC(=O)[C@@H](NC(=O)CNC(=O)[C@H](CCC(=O)O)NC(=O)C(C)(C)NC(=O)[C@@H](N)Cc1c[nH]cn1)[C@@H](C)O)[C@@H](C)O)C(=O)NC(C)(C)C(=O)N[C@@H](Cc1c[nH]c2ccccc12)C(=O)N[C@@H](CC(C)C)C(=O)N[C@H](C(=O)NC(C)(C)C(=O)NCC(=O)N[C@@H](CCCNC(=N)N)C(=O)NCC(N)=O)C(C)C [SEQ. ID. NO: 9]
